Tests used:
[1] = molecular target: nicotinic cholinergic receptors; assay: Inhibition of L-[3H]nicotine binding to mouse brain membranes; set-up: species or system mouse (DBA strain); settings: racemic mixture of ligand, 10 nM L-[3H]nicotine, 2 hr, 4° C.
Description: Mice (DBA strain) were maintained on a 12 hour light/dark cycle and were allowed free access to water and food supplied by Wayne Lab Blox, Madison, Wis. Animals used in the present studies were 60 to 90 days of age and weighed 20 to 25 g. Brain membrane preparations were obtained from pooled brain tissue of both males and females.
Mice were killed by cervical dislocation. Brains were removed and placed on an ice-cold platform. […] Protein was determined by the method of Lowry, et al., J. Biol. Chem., Vol. 193, pp. 265-275 (1951), using bovine serum albumin as the standard.
The binding of L-[^3 H]nicotine was measured using a modification of the method of Romano, et al., Science, Vol. 210, pp. 647-650 (1980) as described previously by Marks, et al., Mol. Pharmacol., Vol. 30, pp. 427-436 (1986). The binding of L-[^3 H]nicotine was measured using a 2 hr. incubation at 4° C. […] Nonspecific binding was determined by inclusion of 10 μM nonradioactive nicotine in the incubations. The inhibition of L-[^3 H]nicotine binding by test compounds was determined by including one of eight different concentrations of the test compound in the incubation. […] Inhibition constants (Ki values) were calculated from the IC50 values using the method of Cheng, et al., Biochem. Pharmacol., Vol. 22, pp. 3099-3108 (1973). […]

[2] = tested on: synaptosomes from the striatal area of rat brain (dopamine release); assay: [3H]-dopamine release from striatal synaptosomes of rat brain; assay type: cell-based, rat (Sprague-Dawley); settings: evaluated as described in Example 1
Description: Dopamine release was measured by preparing synaptosomes from the striatal area of rat brain generally obtained from Sprague-Dawley rats according to the procedures set forth by Nagy, et al., J. Neurochem., Vol. 43, pp. 1114-1123 (1984). Striata from 4 rats were homogenized in 2 ml of 0.32M sucrose buffered with 5 mM HEPES (pH 7.5), using a glass-teflon tissue grinder. The homogenate was diluted to 5 ml with additional homogenization solution and centrifuged at 1000×g for 10 min. This procedure was repeated on the new pellet and the resulting supernatant was centrifuged at 12,000×g for 20 min. […] Using this method, 30 to 90 percent of the dopamine was taken up into the synaptosomes, as determined by scintillation counting following filtration through glass fiber filters soaked with 0.5 percent polyethyleneimine. […] After the addition of a 0.2 ml of a 20 μM solution of ligand, the perfusate was collected into scintillation vials at 1 min. intervals and the dopamine released was quantified by scintillation counting. Peaks of radioactivity released above background were summed and the average basal release during that time was subtracted from the total. Release was expressed as a percentage of release obtained with an equal concentration of (S)-(-)-nicotine.

[3] = tested on: nicotinic cholinergic receptors; settings: chronic administration to animals; cited from earlier work
[4] = tested on: acetylcholine release in brain tissue; settings: direct action; cited from earlier work
[5] = in vivo; cited from earlier work
[6] = tested on: nicotinic cholinergic receptors; settings: acute administration; cited from earlier work

Work on `CC(=O)C1=CCC2CCC1N2C` (stereo not drawn) [Ferruginine, ferruginine] yielded a Ki [1] of 3.1 ± 0.5 µM.

In the case of `CC(=O)C1=C(C)CC2CCC1N2C` (stereo not drawn) [Example 3, 2-acetyl-3,8-dimethyl-8-azabicyclo[3.2.1]oct-2-ene], the “dopamine release (in words)” value [2] is reported as “found to provide dopamine release”.

`CC(=O)C1=CCC2CCC1N2` (stereo not drawn) [Norferruginine, norferruginine] gave a Ki [1] of 1.1 ± 0.3 µM.

In the case of `CN1CCCC1c1cccnc1` (stereo not drawn) [nicotine], the “number of nicotinic cholinergic receptors” value [3] is listed as “elicit an increase in the number of such receptors”, the “release of acetylcholine in brain tissue” value [4] is listed as “elicit the release of acetylcholine in brain tissue” and the attention [5] is listed as “enhance attention”. The cognitive functions [5] was “improve cognitive functions” and the “activation of nicotinic cholinergic receptors” value [6] was “suggested to possess an ability to activate nicotinic cholinergic receptors”.

In the case of `CC(=O)C1=C(C)CC2CCC1N2` (stereo not drawn) [Example 2, 2-acetyl-3-methyl-8-azabicyclo[3.2.1]oct-2-ene], the “dopamine release (in words)” value [2] is reported as “found to provide dopamine release”.

Source: patent publication US5227385A, “Method for treatment of neurodegenerative diseases” (priority 1992, dated 1993)
